# Measurements published in article PMC12583827, “Harnessing microbial-derived metabolites in the urinary tract to prevent infection induced catheter encrustation” (Nature Communications, 2025).
# Counter-ions that a name gives are not always drawn.
# Biological target: T1, P. mirabilis urease (Proteus mirabilis, UniProt P17086)
# T1 construct: it utilizes whole bacterial cells, rather than isolated enzyme preparations; endogenous in cells; host or cells: Proteus mirabilis HI4320, live whole cells
# T1 sequence (P17086 whole entry): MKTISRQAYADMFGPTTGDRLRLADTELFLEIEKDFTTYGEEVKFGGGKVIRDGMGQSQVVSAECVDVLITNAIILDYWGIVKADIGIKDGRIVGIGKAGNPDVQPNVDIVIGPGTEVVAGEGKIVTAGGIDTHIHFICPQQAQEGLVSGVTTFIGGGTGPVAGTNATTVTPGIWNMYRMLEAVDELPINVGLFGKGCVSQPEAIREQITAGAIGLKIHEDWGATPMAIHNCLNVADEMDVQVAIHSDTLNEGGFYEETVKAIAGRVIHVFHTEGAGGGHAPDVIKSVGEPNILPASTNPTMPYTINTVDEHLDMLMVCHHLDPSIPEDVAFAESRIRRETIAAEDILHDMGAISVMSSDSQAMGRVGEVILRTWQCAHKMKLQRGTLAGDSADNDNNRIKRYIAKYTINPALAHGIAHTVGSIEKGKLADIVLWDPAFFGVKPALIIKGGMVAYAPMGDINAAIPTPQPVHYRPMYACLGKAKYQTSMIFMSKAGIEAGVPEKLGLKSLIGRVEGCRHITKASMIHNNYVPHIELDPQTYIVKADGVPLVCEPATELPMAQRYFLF
# T1 sequence (P17088 whole entry, further chain): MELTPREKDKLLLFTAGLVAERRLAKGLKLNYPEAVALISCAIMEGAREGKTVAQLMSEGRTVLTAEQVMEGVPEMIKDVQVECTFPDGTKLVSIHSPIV
# T1 sequence (P17087 whole entry, further chain): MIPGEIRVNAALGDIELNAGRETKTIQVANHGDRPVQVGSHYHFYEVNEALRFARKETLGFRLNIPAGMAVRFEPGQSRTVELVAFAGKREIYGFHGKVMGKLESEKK
# Format: cell-based
# Conditions: biosynthetic pathway/functional group screen; highest concentration tested 5mM
row,Structure (SMILES),Dampens urease activity
1,"O=C(O)C(=O)Cc1cnc[nH]1 [Imidazole pyruvate, Imidazole pyruvic acid hydrobromide hydrate]",No

# Same assay, conditions: biosynthetic pathway/functional group screen; highest concentration tested 20mM
row,Structure (SMILES),Dampens urease activity
1,"CC(=O)O [Acetic acid, Acetic Acid, Glacial]",No
2,NCC(=O)O [Glycine],No
3,"O=C(O)C(O)Cc1ccccc1 (racemic) [Phenyllactate, (+/-)-3-Phenyllactic acid]",No
4,N[C@@H](Cc1c[nH]cn1)C(=O)O [L-Histidine],No
5,"C[C@H](O)C(=O)O [L-Lactic acid, L-(+)-Lactic acid]",No

# Same assay, conditions: highest concentration tested 400uM
row,Structure (SMILES),Urease dampening activity
1,"O=c1[nH]c(=O)c2nc[nH]c2[nH]1 [xanthine, Xanthine]",No

# Same assay, conditions: highest concentration tested 2.5mM
row,Structure (SMILES),Urease dampening activity
1,"N[C@@H](Cc1ccc(O)cc1)C(=O)O [tyrosine, L-Tyrosine disodium salt dihydrate]",No

# Same assay, conditions: highest concentration tested 10mM in 20%DMSO
row,Structure (SMILES),Urease dampening activity
1,"O=Cc1c[nH]c2ccccc12 [3-formylindole, Indole-3-carboxyaldehyde]",No
2,O=C(O)C(=O)c1c[nH]c2ccccc12 [3-indoleglyoxylic acid],No

# Same assay, conditions: highest concentration tested 15mM in 10% ethanol
row,Structure (SMILES),Urease dampening activity
1,"O=C(O)C(=O)Cc1ccc(O)cc1 [4-hydroxyphenylpyruvate, 4-Hydroxyphenylpyruvic acid]",No

# Same assay, conditions: potassium phosphate buffer, dose response
row,Structure (SMILES),effect on P. mirabilis urease activity (whole cell)
1,O=C(O)[C@@H](O)Cc1cnc[nH]1 [imidazole lactate],reproducibly decreased

# Same assay, conditions: screen of candidate metabolites; highest concentration tested 20mM; * Trending but not statistically significant
row,Structure (SMILES),Urease dampening activity
1,"O=C([O-])CCC(O)C(=O)[O-].[Na+].[Na+] (racemic) [2-hydroxyglutarate, DL-α-Hydroxyglutaric acid disodium salt]",No
2,"CC[C@H](C)[C@H](NC(C)=O)C(=O)O [N-acetylisoleucine, N-acetyl-L-isoleucine]",No
3,"NCCCCCN [cadaverine, Cadaverine]",No
4,N[C@@H](COP(=O)(O)O)C(=O)O [Ophospho-L-serine],No
5,"O=C1N[C@@H](Cc2ccc(O)cc2)C(=O)N2CCC[C@@H]12 [cyclo(pro-tyr), Cyclo(-Pro-Tyr)]",No
6,"O=C([O-])[C@H](O)[C@@H](O)[C@H](O)[C@H](O)CO.[Na+] [gluconate, Gluconic acid Sodium Salt]",No
7,"OC[C@H]1O[C@@](CO)(O[C@H]2O[C@H](CO)[C@@H](O)[C@H](O)[C@H]2O)[C@@H](O)[C@@H]1O [sucrose, Sucrose]",No
8,"CC(=O)NCCCCN.Cl [N-acetylputrescine, N-Acetylputrescine Hydrochloride]",No
9,NC(N)=NCCC[C@@H](N)C(=O)O [D-Arginine],No
10,CC(=O)NCCCCCN [N-(5-Aminopentyl)acetamide],No
11,"NCCc1ccccc1 [phenethylamine, 2-Phenylethylamine]",No
12,"Nc1ncnc2c1ncn2C1OC(COP(=O)(O)O)C(O)C1O (stereo not drawn) [adenosine 5'-monophosphate (AMP), AMP sodium salt hydrate]",No
13,"N[C@@H](Cc1ccccc1)C(=O)O [phenylalanine, L-phenylalanine]",No
14,"O=C1NC(Cc2ccccc2)C(=O)N2CCCC12 (stereo not drawn) [cyclo(phe-pro), Cyclo(Phe-Pro)]",No
15,N=C(N)NCCC[C@H](N)C(=O)O [L-Arginine],No
16,"Nc1ncnc2c1ncn2[C@@H]1O[C@@H]2COP(=O)(O)O[C@H]2[C@H]1O [adenosine 3',5'-cyclic monophosphate (cAMP)]",No
17,"CCC(C)C(=O)C(=O)[O-].[Na+] (racemic) [3-methyl-2-oxovalerate, (±)-3-Methyl-2-oxovaleric acid sodium salt]",No
18,"NC(N)=NCCCC[C@H](N)C(=O)O [homoarginine, H-HoArg-OH]",No
19,"Nc1ccn([C@@H]2O[C@H](CO)[C@@H](O)[C@H]2O)c(=O)n1 [cytidine, Cytidine]",No
20,"NCCCCN [putrescine, Putrescine Dihydrochloride]",No
21,NCCc1c[nH]cn1 [Histamine free base],Yes*
22,"CC(C)CC(=O)C(=O)O [4-methyl-2-oxopentanoate, 4-Methyl-2-oxovaleric acid]",No
23,"NC(COP(=O)(O)O)C(=O)O (racemic) [Ophospho-D,L-serine]",No
24,Cl.Cl.NCCCCCN [Cadaverine dihydrochloride],No
